Experimental data published in patent US5677326A, “Indoline compound and 5-HT3 receptor antagonist containing the same as active ingredient” (Tokyo Tanabe Company Limited, priority 1993, dated 1997).
Counter-ions that a name gives are not always drawn.

Legend:
stress-related diarrhea = settings: animal models; J. Pharmacol. Exp. Ther. 261, 297 (1992); cited from earlier work
[1] = target: T1, Intestinal 5-HT3 receptor (Cavia porcellus, UniProt O70212); experiment: Intestinal 5-HT3 receptor antagonism (isolated distal colon, 2-methylserotonin-induced contraction); format: cell-based, Hartley guinea pigs; settings: M (molar concentration of antagonist), isolated distal colon, 2-methylserotonin contraction
T1 sequence (O70212 24-490 limits assumed): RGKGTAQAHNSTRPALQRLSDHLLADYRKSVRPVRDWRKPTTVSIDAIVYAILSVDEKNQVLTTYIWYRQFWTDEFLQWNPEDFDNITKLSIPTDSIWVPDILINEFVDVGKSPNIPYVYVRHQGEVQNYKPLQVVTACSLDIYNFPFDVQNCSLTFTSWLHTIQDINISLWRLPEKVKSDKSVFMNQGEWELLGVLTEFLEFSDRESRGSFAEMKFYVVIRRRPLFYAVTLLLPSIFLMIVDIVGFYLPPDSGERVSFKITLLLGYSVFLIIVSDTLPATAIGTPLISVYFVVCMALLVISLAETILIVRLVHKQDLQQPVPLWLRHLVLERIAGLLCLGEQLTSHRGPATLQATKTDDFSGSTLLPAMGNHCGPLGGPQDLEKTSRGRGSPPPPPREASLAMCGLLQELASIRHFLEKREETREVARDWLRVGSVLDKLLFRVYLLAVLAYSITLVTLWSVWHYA
Description: The test was conducted following the method of Miyata, et al. (The Journal of Pharmacology and Experimental Therapeutics Vol.259, No:1, 15 (1991)).
Male Hartley guinea pigs with a body weight of 300-400 g were bled to death, the distal colon (3-10 cm from the anus) was isolated and suspended in a Magnus tube filled with Krebs solution aerated with a mixed gas (95% O2, 5% CO2), and subjected to a tensile load of 1 g. After constant contraction by cumulative addition of 2-methylserotonin (10^-6 -10^-4 M) was obtained, the test agent was added and the pA2 value of the test agent was calculated based on its inhibiting action on the initial value.
The value (pA2 value) is defined as the negative logarithm (-logM) of the molar concentration (M) of the antagonist required to reduce the effect of serotonin at a concentration of 2 times the 2-methylserotonin concentration (EC50) necessary to induce half of the maximum contraction reaction, to an effect induced by an EC50 of serotonin.

[2] = test system: 5-HT3 receptors in the upper intestine; experiment: Antagonism against 5-HT-induced intestinal secretion (jejunal loop); format: in vivo, wister rats; settings: caudal vein, 15 min before serotonin
Description: Antagonism against 5-HT-induced intestinal secretion:
Male wister rats (8-11 weeks old) were anesthetized with urethane, and the abdomen was opened a polyethylene catheter was placed in the jejunum 5 cm distal to the duodenojejunal flexure and fixed by ligation. The second ligation was made at a distal point of 20 cm to create a jejunal loop. Two ml of physiological saline was injected into this loop and initiated continuous injection of physiological saline (0.1 ml/min) or 5-HT (3 μg/0.1 ml/kg/min, serotonin treated group) into the mesenteric artery through the mesenteric artery gastric branch, and after 30 minutes the jejunal loop was isolated, the residual fluid amount was measured, and the net fluid transfer per gram of tissue weight was calculated. The net fluid transfer was expressed as the fluid amount (weight) change in 30 minutes per jejunal tissue weight (g/30 min/g). A "+" was assigned when the fluid amount increased compared with 2 ml of physiological saline injected into the loop, and "-" when it decreased

[3] = test system: restrained stress-induced diarrhea; experiment: Inhibiting effect on restrained stress-induced diarrhea (oral administration); format: in vivo, Wistar rats; settings: 1 hour before stress
Description: Inhibiting effect on restrained stress-induced diarrhea (oral administration): This test was conducted following the method of Miyata, et al. […] Nine-week-old male Wistar rats fasted overnight were placed in a stress cage and their feces produced in 5 hours were observed. Of 15 rats, 14 developed diarrhea. The inhibiting effect on diarrhea was measured by oral administration of the test compounds one hour prior to placement in the stress cage.

[4] = test system: restraint stress-induced diarrhea; experiment: Inhibiting effect on restraint stress-induced diarrhea (intraabdominal administration); format: in vivo, Wistar rats; settings: 30 μg/kg, 30 min before stress
Description: Inhibiting effect on restraint stress-induced diarrhea (intraabdominal administration): This test was conducted in the same manner as Test 3. Nine- to ten-week-oldmale Wistar rats fasted overnight were placed in a stress case and their feces produced in 5 hours were observed. Of 15 rats, 14 developed diarrhea. The inhibiting effect on diarrhea was measured by intraabdominal administration of a test compound 30 minutes prior to placement in the stress cage.

[5] = test system: duodenal extension reflex; experiment: Inhibiting effect on duodenal extension reflex; format: in vivo, Wistar rats; settings: intravenous
From the text: Inhibiting effect on duodenal extension reflex: Unfasted male Wistar rats with a body weight of 300-390 g were opened at the abdomen under urethane anesthesia, and ligated at 2 locations, the gastric pyloric region and 3-4 cm directly under it, to create a duodenal loop. […] The beaker was raised at once to create a internal loop pressure of 75 cm H2, and the depressor reflex and effect of the test agent administration were observed. […] The test agent was then administrated intravenously, and at 5, 15 and 25 minutes after administration an extension stimulus was applied, the depressor reflex was observed, and the differences were expressed as percentages with respect to the initial value, to give the inhibition rates.

[6] = target: T2, 5-HT3 receptors in the heart (Rattus norvegicus, UniProt P35563); experiment: Antagonism against Von Bezold-Jarisch reflex (BJ reflex); format: in vivo, SD rats; settings: iv, 5 min before serotonin 30 μg/kg, read-out: ID50 (the source's name)
T2 construct: from tissue; host or cells: living anesthetized male SD rats (in vivo)
T2 sequence (P35563 24-483): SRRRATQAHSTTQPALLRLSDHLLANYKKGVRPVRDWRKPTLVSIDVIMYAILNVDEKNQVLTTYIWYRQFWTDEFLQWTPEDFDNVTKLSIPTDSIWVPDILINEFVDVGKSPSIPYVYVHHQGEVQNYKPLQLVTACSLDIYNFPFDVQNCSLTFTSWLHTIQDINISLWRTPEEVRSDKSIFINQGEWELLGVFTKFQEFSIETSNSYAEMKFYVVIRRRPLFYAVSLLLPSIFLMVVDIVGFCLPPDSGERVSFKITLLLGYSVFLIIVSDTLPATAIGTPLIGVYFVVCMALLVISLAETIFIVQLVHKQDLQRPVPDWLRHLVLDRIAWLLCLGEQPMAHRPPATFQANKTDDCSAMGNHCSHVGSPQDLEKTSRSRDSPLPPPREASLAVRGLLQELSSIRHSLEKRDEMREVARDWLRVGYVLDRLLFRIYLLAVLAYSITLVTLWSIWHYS
Description: Antagonism against Von Bezold-Jarisch reflex (BJ reflex):
The pulse was determined by measuring the electrocardiogram R waves (secondary induction) with an instantaneous pulse rate meter.

[7] = test system: cisplatin-induced vomiting; experiment: Inhibiting effect on cisplatin-induced vomiting; format: in vivo, ferrets; settings: oral, 1 hour before cisplatin; for No. of retching / No. of vomiting animals/No. of animals used / No. of vomitings: 6 hours
From the text: Inhibiting effect on cisplatin-induced vomiting:
Vomiting was induced in ferrets by administration of cisplatin. The inhibiting effect on this vomiting was observed. […] The test agents were orally administered one hour prior to cisplatin administration. […]

gastric emptying = experiment: Accelerating effect on gastric emptying (cisplatin-reduced); format: in vivo, SD rats; settings: oral, 30 min before cisplatin 10 mg/kg
Description: Accelerating effect on gastric emptying
Seven-week-old male SD rats which had been fasted for 24 hours were used. The effect on gastric emptying was studied in rats with reduced gastric emptying due to cisplatin. The rats were intragastrically administered the test feed (1.5% aqueous CMC solution containing 50 mg/100 ml phenol red) at 1.5 ml/rat, and after 15 minutes the stomachs were dissected, the residual amount of phenol red in the stomach was measured, in order to determine the gastric emptying in normal animals. A cisplatin-induced reduction in gastric emptying was measured by intraabdominal administration of cisplatin (10 mg/kg) 30 minutes prior to supplying the test feed. The test compound was also administered orally 30 minutes prior to the cisplatin administration to study the accelerating effect of the test compound on gastric emptying.

vomiting = settings: The Japanese Journal of Pharmacology 57, 387-395 (1991); cited from earlier work

CN1C2CCCC1CC(NC(=O)c1nn(C)c3ccccc13)C2 (stereo not drawn) [Granisetron, N-(endo-9-methyl-9-azabicyclo [3,3,1]nona-3-yl)-l-methyl-indazol-3-carboxamide hydrochloride]
suppression of stress-related diarrhea (in words) (stress-related diarrhea): suppress stress-related diarrhea

Cc1nccn1CC1CCc2c(c3ccccc3n2C)C1=O (centres unmarked) [Ondansetron, 1,2,3,4-tetrahydro-9-methyl-3-[(2-methyl-1H-imidazol-1-yl)methyl]-4H-carbazol-4-one-hydrochloride dihydrate]
suppression of stress-related diarrhea (in words) (stress-related diarrhea): suppress stress-related diarrhea

Cl.Cn1cc(C(=O)[C@@H]2CCc3nc[nH]c3C2)c2ccccc21 [YM-060, (R)-(-)-5-[(1-methylindol-3-yl)carbonyl]-4,5,6,7-tetrahydrobenzimidazole hydrochloride, reference compound]
Kb [1]: 4.5 nM
net fluid transfer in jejunal loop ([2]; 1.0 μg/kg): -0.49 ± 0.06 g/30 min/g tissue weight
net fluid transfer in jejunal loop ([2]; 10 μg/kg): -0.74 ± 0.09 g/30 min/g tissue weight
Inhibition rate ([3]; 30 μg/kg): 60%
No. of animals with diarrhea/No. of animals used ([3]; 30 μg/kg): 4/10
Inhibition rate ([3]; 100 μg/kg): 75%
No. of animals with diarrhea/No. of animals used ([3]; 100 μg/kg): 2/8
Inhibition rate [4]: 50%
No. of animals with diarrhea/No. of animals used [4]: 7/14
Inhibition rate, 5-min value ([5]; 1 μg/kg): -27.9%
Inhibition rate, 15-min value ([5]; 1 μg/kg): -30.8%
Inhibition rate, 25-min value ([5]; 1 μg/kg): -14.8%
Inhibition rate, 5-min value ([5]; 10 μg/kg): 16.3%
Inhibition rate, 15-min value ([5]; 10 μg/kg): 6.3%
Inhibition rate, 25-min value ([5]; 10 μg/kg): 7.9%
ED50 [6]: 8.6e-05 µmol/kg
Latency* (time to initial retching) ([7]; 0.3 μg): 127.0 min
Latency** (time to initial vomiting) ([7]; 0.3 μg): 134.0 min
No. of retching ([7]; 0.3 μg): 126.0
No. of vomiting animals/No. of animals used ([7]; 0.3 μg): 2/2
No. of vomitings ([7]; 0.3 μg): 6.5
Latency* (time to initial retching) ([7]; 1.0 μg): > 272.2 min
Latency** (time to initial vomiting) ([7]; 1.0 μg): > 303.0 min
No. of retching ([7]; 1.0 μg): 41.6
No. of vomiting animals/No. of animals used ([7]; 1.0 μg): 3/5
No. of vomitings ([7]; 1.0 μg): 1.2
Gastric evacuation (gastric emptying; 0.3 μg/kg): 51.8%
Gastric evacuation (gastric emptying; 1.0 μg/kg): 74.2%
suppression of stress-related diarrhea (in words) (stress-related diarrhea): suppress stress-related diarrhea in animal models, with the effect of YM-060 being the strongest
antiemetic effect (in words) (vomiting): powerful antiemetic effect
